Test [1] concerns the target human recombinant serotonin (5-Hydroxytryptamine) 5-HT7 receptor (Homo sapiens, UniProt P34969). In words: Serotonin 5-HT7 radioligand binding ([3H]LSD). Conditions: 0.1 μM ligand concentration. How it is done:
Compounds of invention were incubated with 5.5 nM [^3H]Lysergic acid diethylamide (LSD) for 2 h at 25° C. […] Receptor proteins were filtered and washed, the filters were then counted to determine [^3H]LSD specifically bound. Compounds were screened at 1 μM or lower, using 1% DMSO as vehicle. Biochemical assay results are presented as the percent inhibition of specific binding in Table 4.

Test [2] addresses T1, human recombinant adrenergic α2B receptor (Homo sapiens, UniProt P18089).
T1 construct: expressed in transfected cells; host or cells: Chinese hamster ovary (CHO-K1) cells
T1 sequence (P18089 1-450): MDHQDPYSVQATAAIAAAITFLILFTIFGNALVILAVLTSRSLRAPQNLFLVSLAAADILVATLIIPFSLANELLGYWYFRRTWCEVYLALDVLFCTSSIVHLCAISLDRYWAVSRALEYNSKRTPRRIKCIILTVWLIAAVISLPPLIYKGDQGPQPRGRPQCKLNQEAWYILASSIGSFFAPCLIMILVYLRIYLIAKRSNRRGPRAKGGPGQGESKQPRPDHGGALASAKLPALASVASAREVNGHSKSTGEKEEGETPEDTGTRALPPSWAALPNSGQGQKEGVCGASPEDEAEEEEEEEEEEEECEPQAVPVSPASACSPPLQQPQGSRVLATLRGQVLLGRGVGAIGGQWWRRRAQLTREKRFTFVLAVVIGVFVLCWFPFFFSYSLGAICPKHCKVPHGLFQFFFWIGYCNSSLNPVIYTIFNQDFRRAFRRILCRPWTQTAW
In words: Adrenergic α2B radioligand binding ([3H]Rauwolscine). The following applies: 0.1 μM ligand conc. How it is done: To evaluate in radioligand binding assays the activity of compounds of the invention, human recombinant adrenergic α2B receptor expressed in Chinese hamster ovary (CHO-K1) cells [Uhlen, S. et al., Eur. J. Pharmacol. (1998), 343(1):93] in a modified Tris-HCl buffer (50 mM Tris-HCl, pH 7.4, 12.5 mM MgCl2, 1 mM EDTA, 0.2% BSA) was used. Compounds of the invention were incubated with 2.5 nM [^3H]Rauwolscine for 60 min at 25° C. Non-specific binding was estimated in the presence of 10 μM Prozosin. Receptor proteins were filtered and washed, the filters were then counted to determine [^3H]Rauwolscine specifically bound. Compounds were screened at 1 μM or lower, using 1% DMSO as vehicle. Compounds of the invention were tested in this biochemical assay. Biochemical assay results for representative compounds were presented as the percent inhibition of specific binding in Table 3.

In test [3] the target is T2, human recombinant serotonin (5-Hydroxytryptamine) 5-HT2A receptor (Homo sapiens, UniProt P28223).
T2 construct: expressed in transfected cells; host or cells: Chinese hamster ovary (CHO-K1) cells
T2 sequence (P28223 whole entry): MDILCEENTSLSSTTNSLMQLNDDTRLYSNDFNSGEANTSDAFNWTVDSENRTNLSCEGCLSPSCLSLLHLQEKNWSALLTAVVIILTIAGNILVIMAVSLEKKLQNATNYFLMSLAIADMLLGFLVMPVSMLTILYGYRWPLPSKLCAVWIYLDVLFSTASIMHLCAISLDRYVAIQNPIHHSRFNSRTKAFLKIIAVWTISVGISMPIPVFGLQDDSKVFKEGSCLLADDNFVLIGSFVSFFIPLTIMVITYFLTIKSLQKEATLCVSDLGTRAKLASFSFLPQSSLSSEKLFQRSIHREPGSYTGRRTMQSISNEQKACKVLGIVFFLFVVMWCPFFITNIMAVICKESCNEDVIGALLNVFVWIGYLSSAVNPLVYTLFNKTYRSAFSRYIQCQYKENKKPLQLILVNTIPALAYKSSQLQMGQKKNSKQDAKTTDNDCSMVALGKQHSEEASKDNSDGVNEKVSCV
Put plainly: Serotonin 5-HT2A radioligand binding ([3H]Ketanserin). Conditions: 0.1 μM ligand concentration. On the procedure:
(1997), 68:1998] in a 50 mM Tris-HCl buffer, pH 7.4, was used. Compounds of the invention were incubated with 0.5 nM [^3H]Ketanserin for 60 min at 25° C. Non-specific binding was estimated in the presence of 1 μM Mianserin. Receptor proteins were filtered and washed, the filters were then counted to determine [^3H]Ketanserin specifically bound. Compounds were screened at 1 μM or lower, using 1% DMSO as vehicle. Biochemical assay results are presented as the percent inhibition of specific binding in Table 4.

Test [4] addresses T3, human recombinant serotonin (5-Hydroxytryptamine) 5-HT6 receptor (Homo sapiens, UniProt P50406).
T3 construct: expressed in transfected cells; host or cells: human HeLa cells
In words: Serotonin 5-HT6 radioligand binding ([3H]LSD). Conditions: 0.1 μM ligand concentration. How it is done: Compounds of the invention were incubated with 1.5 nM [3H]Lysergic acid diethylamide (LSD) for 120 min at 37° C. […] Receptor proteins were filtered and washed, the filters were then counted to determine [3H]LSD specifically bound. Compounds were screened at 1 μM or lower, using 1% DMSO as vehicle. Biochemical assay results are presented as the percent inhibition of specific binding in Table 4.

T3 sequence (P50406 whole entry): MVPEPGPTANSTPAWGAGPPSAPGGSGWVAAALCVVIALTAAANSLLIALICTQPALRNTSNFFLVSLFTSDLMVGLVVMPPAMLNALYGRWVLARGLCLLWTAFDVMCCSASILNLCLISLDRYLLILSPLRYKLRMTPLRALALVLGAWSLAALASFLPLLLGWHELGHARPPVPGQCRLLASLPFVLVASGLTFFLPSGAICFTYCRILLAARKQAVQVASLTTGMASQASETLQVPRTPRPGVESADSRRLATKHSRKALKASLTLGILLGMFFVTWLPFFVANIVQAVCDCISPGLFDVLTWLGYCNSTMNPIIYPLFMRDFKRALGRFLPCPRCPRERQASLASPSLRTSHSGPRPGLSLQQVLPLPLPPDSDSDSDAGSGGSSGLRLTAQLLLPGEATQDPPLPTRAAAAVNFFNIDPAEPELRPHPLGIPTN
human recombinant serotonin (5-Hydroxytryptamine) 5-HT7 receptor, sequence (P34969 whole entry): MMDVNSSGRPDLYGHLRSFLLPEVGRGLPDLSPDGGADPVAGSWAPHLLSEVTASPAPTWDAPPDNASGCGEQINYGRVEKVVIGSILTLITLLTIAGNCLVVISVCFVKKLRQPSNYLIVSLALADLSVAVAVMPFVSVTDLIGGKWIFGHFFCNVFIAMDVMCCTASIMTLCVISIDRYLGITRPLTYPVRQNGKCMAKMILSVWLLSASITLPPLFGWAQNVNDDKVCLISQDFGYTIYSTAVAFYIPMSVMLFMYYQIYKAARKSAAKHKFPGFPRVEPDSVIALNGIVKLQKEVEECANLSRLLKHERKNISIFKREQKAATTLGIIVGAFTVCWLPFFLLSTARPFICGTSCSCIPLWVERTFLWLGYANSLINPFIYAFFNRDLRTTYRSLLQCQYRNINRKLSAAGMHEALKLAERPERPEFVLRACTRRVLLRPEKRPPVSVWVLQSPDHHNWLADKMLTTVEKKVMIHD

In the case of `Cc1cnc2c(c1)c1c(n2CC(=O)N2CCCCC2)CCN2CCCC12` (centres unmarked) [Compound 41, 2-(10-methyl-2,3,5,6-tetrahydro-1H-pyrido[3′,2′:4,5]pyrrolo[2,3-g]indolizin-7(11cH)-yl)-1-(piperidin-1-yl)ethanone], the “Percent Inhibition of ligand binding Serotonin 5-HT7” value in test [1] is −5%. The “Percent Inhibition of ligand binding Adrenergic α2B” value in test [2] was found to be 14%. The “Percent Inhibition of ligand binding Serotonin 5-HT2A” value in test [3] is recorded as −2%. Further, the “Percent Inhibition of ligand binding Serotonin 5-HT6” value in test [4] is given as 8%.

Turning to `Cc1cnc2c(c1)c1c(n2CC(=O)N2CCCCC2)CC2CCCN2C1` (centres unmarked) [Compound 42, 2-(3-methyl-8,9,9a,10-tetrahydro-5H-pyrido[3′,2′:4,5]pyrrolo[3,2-f]indolizin-11(7H)-yl)-1-(piperidin-1-yl)ethanone], the “Percent Inhibition of ligand binding Serotonin 5-HT7” value in test [1] was −1%. In addition, the “Percent Inhibition of ligand binding Adrenergic α2B” value in test [2] was determined as 3%. Besides, in test [3], the “Percent Inhibition of ligand binding Serotonin 5-HT2A” value came to 1%. Moreover, the “Percent Inhibition of ligand binding Serotonin 5-HT6” value in test [4] was found to be 2%.
